Laboratory results: the kinase profiling compilation of Christmann-Franck et al. (2016)

Experiments:
Experiment in all cases: KINOMEscan competition binding
Settings in all cases: compound 10.0 µM
[1] = target: AAK1 (human) (UniProt Q2M2I8)
[2] = system: ABL1 (human), P00519 [F317L]
[3] = system: ABL1 (human), P00519 [Q252H]
[4] = system: ABL1 (human), P00519 [Y253F]
[5] = target: CAMKK1 (human) (UniProt Q8N5S9)
[6] = target: CDK16 (human) (UniProt Q00536)
[7] = target: CDKL5 (human) (UniProt O76039)
[8] = target: CSNK1E (human) (UniProt P49674)
[9] = target: CSNK1G3 (human) (UniProt Q9Y6M4)
Sequence of CSNK1G3 (human) (Q9Y6M4 whole entry, looked up): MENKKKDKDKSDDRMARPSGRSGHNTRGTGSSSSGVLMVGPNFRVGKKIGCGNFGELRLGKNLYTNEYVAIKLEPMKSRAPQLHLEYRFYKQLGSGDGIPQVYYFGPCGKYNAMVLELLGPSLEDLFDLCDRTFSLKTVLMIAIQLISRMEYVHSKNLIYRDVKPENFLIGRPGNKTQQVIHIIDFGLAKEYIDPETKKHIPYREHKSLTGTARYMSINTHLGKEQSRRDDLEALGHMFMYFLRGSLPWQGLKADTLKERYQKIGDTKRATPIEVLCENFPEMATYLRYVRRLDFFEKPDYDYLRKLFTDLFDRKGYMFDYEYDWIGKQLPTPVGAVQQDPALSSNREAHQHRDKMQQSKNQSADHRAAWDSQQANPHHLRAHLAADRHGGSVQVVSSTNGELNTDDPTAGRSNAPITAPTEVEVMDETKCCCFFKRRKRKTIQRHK

[10] = target: DAPK3 (human) (UniProt O43293)
[11] = target: DCLK2 (human) (UniProt Q8N568)
[12] = target: DCLK3 (human) (UniProt Q9C098)
Sequence of DCLK3 (human) (Q9C098 whole entry, looked up): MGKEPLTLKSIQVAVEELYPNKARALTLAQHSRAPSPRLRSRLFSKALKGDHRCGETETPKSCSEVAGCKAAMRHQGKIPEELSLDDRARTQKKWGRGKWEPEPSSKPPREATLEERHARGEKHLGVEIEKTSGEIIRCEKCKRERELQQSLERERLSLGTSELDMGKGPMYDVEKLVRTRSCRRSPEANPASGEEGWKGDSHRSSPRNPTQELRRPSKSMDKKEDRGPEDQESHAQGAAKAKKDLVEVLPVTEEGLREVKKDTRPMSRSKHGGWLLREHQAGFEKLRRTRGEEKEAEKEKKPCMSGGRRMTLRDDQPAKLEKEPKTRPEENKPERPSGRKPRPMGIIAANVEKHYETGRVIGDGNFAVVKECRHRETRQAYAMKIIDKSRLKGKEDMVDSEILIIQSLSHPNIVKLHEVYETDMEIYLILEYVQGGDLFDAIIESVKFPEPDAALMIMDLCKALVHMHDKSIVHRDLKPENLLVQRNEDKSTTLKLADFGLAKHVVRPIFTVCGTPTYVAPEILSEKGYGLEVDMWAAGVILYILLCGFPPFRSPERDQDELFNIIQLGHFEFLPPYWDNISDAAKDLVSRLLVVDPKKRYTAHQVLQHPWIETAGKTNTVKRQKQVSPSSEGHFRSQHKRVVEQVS

[13] = target: DYRK1A (human) (UniProt Q13627)
[14] = target: EPHA4 (human) (UniProt P54764)
[15] = target: EPHB2 (human) (UniProt P29323)
[16] = target: EPHB3 (human) (UniProt P54753)
[17] = target: ERBB4 (human) (UniProt Q15303)
[18] = target: FGFR1 (human) (UniProt P11362)
[19] = system: FGFR3 (human), P22607 [G697C]
[20] = target: IKBKE (human) (UniProt Q14164)
[21] = system: KIT (human), P10721 [V559D]
[22] = target: MAP2K2 (human) (UniProt P36507)
[23] = target: MAP4K2 (human) (UniProt Q12851)
Sequence of MAP4K2 (human) (Q12851 whole entry, looked up): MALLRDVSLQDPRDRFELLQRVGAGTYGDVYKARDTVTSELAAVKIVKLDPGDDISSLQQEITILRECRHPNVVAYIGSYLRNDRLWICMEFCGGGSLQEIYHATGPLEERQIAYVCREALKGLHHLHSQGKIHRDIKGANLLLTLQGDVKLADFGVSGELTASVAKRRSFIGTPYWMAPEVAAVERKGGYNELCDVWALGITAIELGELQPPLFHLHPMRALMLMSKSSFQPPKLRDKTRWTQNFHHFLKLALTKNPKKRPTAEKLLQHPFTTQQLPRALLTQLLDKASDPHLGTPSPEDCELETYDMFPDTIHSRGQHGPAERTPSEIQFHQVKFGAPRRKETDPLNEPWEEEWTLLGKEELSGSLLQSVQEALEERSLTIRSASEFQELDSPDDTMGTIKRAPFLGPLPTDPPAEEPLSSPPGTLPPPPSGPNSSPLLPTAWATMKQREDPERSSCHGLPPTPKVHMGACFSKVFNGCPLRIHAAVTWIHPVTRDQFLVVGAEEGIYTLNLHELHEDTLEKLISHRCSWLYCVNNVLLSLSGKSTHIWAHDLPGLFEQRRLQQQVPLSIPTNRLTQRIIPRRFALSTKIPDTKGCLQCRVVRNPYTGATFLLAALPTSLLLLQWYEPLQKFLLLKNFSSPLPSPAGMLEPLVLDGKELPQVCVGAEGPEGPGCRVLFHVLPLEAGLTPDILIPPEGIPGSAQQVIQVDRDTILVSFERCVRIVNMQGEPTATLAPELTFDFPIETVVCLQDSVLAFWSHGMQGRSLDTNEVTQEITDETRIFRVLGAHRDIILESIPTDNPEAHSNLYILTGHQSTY

[24] = target: MAPK1 (human) (UniProt P28482)
Sequence of MAPK1 (human) (P28482 whole entry, looked up): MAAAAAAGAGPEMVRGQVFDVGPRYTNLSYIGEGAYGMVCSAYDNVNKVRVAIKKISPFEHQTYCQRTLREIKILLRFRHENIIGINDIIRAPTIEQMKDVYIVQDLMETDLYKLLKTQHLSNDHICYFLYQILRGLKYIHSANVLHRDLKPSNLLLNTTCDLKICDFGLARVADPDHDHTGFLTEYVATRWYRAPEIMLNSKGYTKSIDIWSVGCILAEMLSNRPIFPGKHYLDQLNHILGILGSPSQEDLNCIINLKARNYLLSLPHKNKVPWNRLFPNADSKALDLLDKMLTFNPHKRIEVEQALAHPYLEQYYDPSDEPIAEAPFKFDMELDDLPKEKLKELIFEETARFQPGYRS

[25] = target: MAPK10 (human) (UniProt P53779)
Sequence of MAPK10 (human) (P53779 whole entry, looked up): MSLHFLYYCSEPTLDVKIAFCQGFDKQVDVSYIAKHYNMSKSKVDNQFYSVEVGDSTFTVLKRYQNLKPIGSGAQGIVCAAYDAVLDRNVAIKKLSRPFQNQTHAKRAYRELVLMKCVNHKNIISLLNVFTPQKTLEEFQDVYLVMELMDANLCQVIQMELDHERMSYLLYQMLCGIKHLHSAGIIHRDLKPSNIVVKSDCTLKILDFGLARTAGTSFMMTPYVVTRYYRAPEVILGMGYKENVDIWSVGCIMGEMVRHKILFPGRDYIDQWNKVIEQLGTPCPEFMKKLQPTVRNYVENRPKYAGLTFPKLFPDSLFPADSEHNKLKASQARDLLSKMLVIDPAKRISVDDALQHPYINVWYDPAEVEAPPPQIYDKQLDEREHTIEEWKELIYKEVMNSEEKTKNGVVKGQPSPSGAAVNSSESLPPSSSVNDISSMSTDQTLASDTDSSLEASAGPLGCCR

[26] = target: MAPK8 (human) (UniProt P45983)
[27] = target: MATK (human) (UniProt P42679)
[28] = system: MET (human), P08581 [Y1235D]
[29] = target: MST4 (human) (UniProt Q9P289)
[30] = target: MYLK (human) (UniProt Q15746)
[31] = target: NEK6 (human) (UniProt Q9HC98)
[32] = target: PAK3 (human) (UniProt O75914)
[33] = target: PDPK1 (human) (UniProt O15530)
[34] = target: PIK3C2B (human) (UniProt O00750)
[35] = target: PLK3 (human) (UniProt Q9H4B4)
[36] = target: PRKACB (human) (UniProt P22694)
[37] = target: RIPK4 (human) (UniProt P57078)
Sequence of RIPK4 (human) (P57078 whole entry, looked up): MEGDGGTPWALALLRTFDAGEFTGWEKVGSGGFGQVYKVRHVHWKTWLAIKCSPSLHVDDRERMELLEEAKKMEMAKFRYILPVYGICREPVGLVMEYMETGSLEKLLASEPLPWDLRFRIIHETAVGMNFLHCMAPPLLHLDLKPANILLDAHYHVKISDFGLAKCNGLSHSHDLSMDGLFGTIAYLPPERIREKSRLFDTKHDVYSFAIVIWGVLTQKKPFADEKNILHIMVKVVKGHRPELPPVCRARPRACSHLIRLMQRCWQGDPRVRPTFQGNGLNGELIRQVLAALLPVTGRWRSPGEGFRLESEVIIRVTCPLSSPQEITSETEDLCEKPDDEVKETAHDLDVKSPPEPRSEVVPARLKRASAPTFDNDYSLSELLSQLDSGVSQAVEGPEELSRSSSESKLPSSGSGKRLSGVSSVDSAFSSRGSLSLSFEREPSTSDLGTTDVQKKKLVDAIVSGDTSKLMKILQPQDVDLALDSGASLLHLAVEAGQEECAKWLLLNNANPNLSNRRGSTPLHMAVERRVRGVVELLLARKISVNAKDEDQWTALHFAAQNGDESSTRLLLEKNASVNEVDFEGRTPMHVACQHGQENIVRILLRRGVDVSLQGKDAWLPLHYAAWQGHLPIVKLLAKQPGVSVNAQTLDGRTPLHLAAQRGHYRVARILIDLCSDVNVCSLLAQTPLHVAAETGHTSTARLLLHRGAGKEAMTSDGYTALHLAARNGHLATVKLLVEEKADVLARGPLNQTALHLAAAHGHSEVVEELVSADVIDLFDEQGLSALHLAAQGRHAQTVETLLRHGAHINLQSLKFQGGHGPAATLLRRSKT

[38] = target: SIK2 (human) (UniProt Q9H0K1)
Sequence of SIK2 (human) (Q9H0K1 whole entry, looked up): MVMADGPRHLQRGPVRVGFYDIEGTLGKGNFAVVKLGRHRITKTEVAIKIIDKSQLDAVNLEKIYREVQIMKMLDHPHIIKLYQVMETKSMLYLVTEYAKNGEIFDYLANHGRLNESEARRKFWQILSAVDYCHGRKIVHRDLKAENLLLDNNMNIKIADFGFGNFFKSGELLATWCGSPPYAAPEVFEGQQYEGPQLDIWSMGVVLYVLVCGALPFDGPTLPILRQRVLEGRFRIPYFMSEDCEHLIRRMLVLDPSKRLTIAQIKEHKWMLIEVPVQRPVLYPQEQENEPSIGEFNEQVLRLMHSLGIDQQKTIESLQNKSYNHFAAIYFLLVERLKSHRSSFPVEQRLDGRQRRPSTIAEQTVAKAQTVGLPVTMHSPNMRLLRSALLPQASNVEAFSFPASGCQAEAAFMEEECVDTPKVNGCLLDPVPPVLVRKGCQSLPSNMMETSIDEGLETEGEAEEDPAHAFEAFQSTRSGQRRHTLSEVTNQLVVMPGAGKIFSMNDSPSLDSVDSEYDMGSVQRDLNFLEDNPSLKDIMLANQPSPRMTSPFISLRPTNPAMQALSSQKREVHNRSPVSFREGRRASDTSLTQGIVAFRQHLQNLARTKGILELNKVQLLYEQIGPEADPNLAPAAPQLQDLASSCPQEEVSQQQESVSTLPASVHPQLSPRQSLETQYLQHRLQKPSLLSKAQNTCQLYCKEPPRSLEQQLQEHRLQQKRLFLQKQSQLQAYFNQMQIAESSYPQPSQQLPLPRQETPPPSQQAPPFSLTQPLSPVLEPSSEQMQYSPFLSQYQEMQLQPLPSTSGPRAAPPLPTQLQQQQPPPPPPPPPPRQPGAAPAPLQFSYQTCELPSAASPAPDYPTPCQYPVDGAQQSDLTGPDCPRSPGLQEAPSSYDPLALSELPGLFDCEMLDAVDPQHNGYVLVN

[39] = target: STK11 (human) (UniProt Q15831)
[40] = target: STK16 (human) (UniProt O75716)
[41] = target: STK3 (human) (UniProt Q13188)
Sequence of STK3 (human) (Q13188 whole entry, looked up): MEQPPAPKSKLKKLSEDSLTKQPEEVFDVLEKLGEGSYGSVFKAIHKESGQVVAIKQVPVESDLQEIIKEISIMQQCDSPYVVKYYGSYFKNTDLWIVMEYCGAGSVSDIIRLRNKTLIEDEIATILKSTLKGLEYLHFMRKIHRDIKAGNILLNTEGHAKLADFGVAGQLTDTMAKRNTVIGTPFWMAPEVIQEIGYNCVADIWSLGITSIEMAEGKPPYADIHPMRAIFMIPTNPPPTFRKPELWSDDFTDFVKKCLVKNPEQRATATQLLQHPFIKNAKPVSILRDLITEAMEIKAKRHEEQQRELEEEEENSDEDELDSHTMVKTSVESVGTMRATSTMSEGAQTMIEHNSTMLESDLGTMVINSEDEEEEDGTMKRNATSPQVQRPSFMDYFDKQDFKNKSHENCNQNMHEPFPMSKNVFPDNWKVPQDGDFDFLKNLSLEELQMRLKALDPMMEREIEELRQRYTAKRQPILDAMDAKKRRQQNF

[42] = target: ULK2 (human) (UniProt Q8IYT8)

Cn1cc(C2=C(c3ccc(Cl)cc3Cl)C(=O)NC2=O)c2ccccc21
kinase still bound, per cent of control [1]: 26% | kinase still bound, per cent of control [2]: 100% | kinase still bound, per cent of control [3]: 100% | kinase still bound, per cent of control [4]: 100% | kinase still bound, per cent of control [5]: 68% | kinase still bound, per cent of control [6]: 0.2% | kinase still bound, per cent of control [7]: 100% | kinase still bound, per cent of control [8]: 49% | kinase still bound, per cent of control [9]: 69% | kinase still bound, per cent of control [10]: 69% | kinase still bound, per cent of control [11]: 100% | kinase still bound, per cent of control [12]: 66% | kinase still bound, per cent of control [13]: 2.3% | kinase still bound, per cent of control [14]: 100% | kinase still bound, per cent of control [15]: 100% | kinase still bound, per cent of control [16]: 100% | kinase still bound, per cent of control [17]: 100% | kinase still bound, per cent of control [18]: 100% | kinase still bound, per cent of control [19]: 100% | kinase still bound, per cent of control [20]: 85% | kinase still bound, per cent of control [21]: 87% | kinase still bound, per cent of control [22]: 100% | kinase still bound, per cent of control [23]: 100% | kinase still bound, per cent of control [24]: 100% | kinase still bound, per cent of control [25]: 62% | kinase still bound, per cent of control [26]: 77% | kinase still bound, per cent of control [27]: 75% | kinase still bound, per cent of control [28]: 85% | kinase still bound, per cent of control [29]: 100% | kinase still bound, per cent of control [30]: 64% | kinase still bound, per cent of control [31]: 91% | kinase still bound, per cent of control [32]: 86% | kinase still bound, per cent of control [33]: 100% | kinase still bound, per cent of control [34]: 100% | kinase still bound, per cent of control [35]: 97% | kinase still bound, per cent of control [36]: 100% | kinase still bound, per cent of control [37]: 100% | kinase still bound, per cent of control [38]: 89% | kinase still bound, per cent of control [39]: 60% | kinase still bound, per cent of control [40]: 29% | kinase still bound, per cent of control [41]: 9.9% | kinase still bound, per cent of control [42]: 96%

COc1ccc(CNC(=O)Nc2ncc([N+](=O)[O-])s2)cc1
kinase still bound, per cent of control [1]: 100% | kinase still bound, per cent of control [2]: 100% | kinase still bound, per cent of control [3]: 100% | kinase still bound, per cent of control [4]: 100% | kinase still bound, per cent of control [5]: 93% | kinase still bound, per cent of control [6]: 15% | kinase still bound, per cent of control [7]: 100% | kinase still bound, per cent of control [8]: 87% | kinase still bound, per cent of control [9]: 59% | kinase still bound, per cent of control [10]: 81% | kinase still bound, per cent of control [11]: 100% | kinase still bound, per cent of control [12]: 66% | kinase still bound, per cent of control [13]: 100% | kinase still bound, per cent of control [14]: 100% | kinase still bound, per cent of control [15]: 15% | kinase still bound, per cent of control [16]: 100% | kinase still bound, per cent of control [17]: 100% | kinase still bound, per cent of control [18]: 100% | kinase still bound, per cent of control [19]: 100% | kinase still bound, per cent of control [20]: 88% | kinase still bound, per cent of control [21]: 3.6% | kinase still bound, per cent of control [22]: 100% | kinase still bound, per cent of control [23]: 100% | kinase still bound, per cent of control [24]: 100% | kinase still bound, per cent of control [25]: 53% | kinase still bound, per cent of control [26]: 100% | kinase still bound, per cent of control [27]: 95% | kinase still bound, per cent of control [28]: 96% | kinase still bound, per cent of control [29]: 99% | kinase still bound, per cent of control [30]: 100% | kinase still bound, per cent of control [32]: 90% | kinase still bound, per cent of control [33]: 78% | kinase still bound, per cent of control [34]: 94% | kinase still bound, per cent of control [35]: 100% | kinase still bound, per cent of control [36]: 98% | kinase still bound, per cent of control [37]: 100% | kinase still bound, per cent of control [38]: 80% | kinase still bound, per cent of control [39]: 83% | kinase still bound, per cent of control [40]: 28% | kinase still bound, per cent of control [41]: 3.4% | kinase still bound, per cent of control [42]: 100%

Cc1cnc(-c2cnc(NCCNc3ccc(C#N)cn3)nc2-c2ccc(Cl)cc2Cl)[nH]1
kinase still bound, per cent of control [1]: 100% | kinase still bound, per cent of control [2]: 100% | kinase still bound, per cent of control [3]: 100% | kinase still bound, per cent of control [4]: 100% | kinase still bound, per cent of control [5]: 100% | kinase still bound, per cent of control [6]: 39% | kinase still bound, per cent of control [7]: 100% | kinase still bound, per cent of control [8]: 76% | kinase still bound, per cent of control [9]: 56% | kinase still bound, per cent of control [10]: 83% | kinase still bound, per cent of control [11]: 100% | kinase still bound, per cent of control [12]: 34% | kinase still bound, per cent of control [13]: 100% | kinase still bound, per cent of control [14]: 100% | kinase still bound, per cent of control [15]: 100% | kinase still bound, per cent of control [16]: 100% | kinase still bound, per cent of control [17]: 100% | kinase still bound, per cent of control [18]: 100% | kinase still bound, per cent of control [19]: 100% | kinase still bound, per cent of control [20]: 98% | kinase still bound, per cent of control [21]: 100% | kinase still bound, per cent of control [22]: 100% | kinase still bound, per cent of control [23]: 82% | kinase still bound, per cent of control [24]: 100% | kinase still bound, per cent of control [25]: 64% | kinase still bound, per cent of control [26]: 94% | kinase still bound, per cent of control [27]: 79% | kinase still bound, per cent of control [28]: 100% | kinase still bound, per cent of control [29]: 82% | kinase still bound, per cent of control [30]: 59% | kinase still bound, per cent of control [31]: 100% | kinase still bound, per cent of control [32]: 90% | kinase still bound, per cent of control [33]: 99% | kinase still bound, per cent of control [34]: 91% | kinase still bound, per cent of control [35]: 80% | kinase still bound, per cent of control [36]: 100% | kinase still bound, per cent of control [37]: 100% | kinase still bound, per cent of control [38]: 100% | kinase still bound, per cent of control [39]: 100% | kinase still bound, per cent of control [40]: 91% | kinase still bound, per cent of control [41]: 100% | kinase still bound, per cent of control [42]: 96%
